Reference: US20100203634A1, “Inhibition of stem cell differentiation, enhancement of proliferation and selective induction of apoptosis by Wnt factors” (DeltaCell B.V., priority 2003, published 2010)
Entries after “also recorded” stand apart in the source; their conditions may differ.

Test system: fetal lung explants
Assay: Fetal murine lung explant culture (hanging drop), stereomicroscopy and H/E histology of differentiation
Type: cell-based, mouse
Excerpt: To provide proof of evidence, an in vitro explant lung culture (obtained from a mouse) is used. Generation of new alveolar tissue in patients is stimulated by activation or re-activation of alveolar bud formation. Growth and branching of alveolar buds, followed by transformation into alveolar ducts, sacs and pouches, results in the establishment of pulmonary acini.
As a proof of evidence, it is, therefore, shown that treatment with selected molecules involved in a Wnt pathway inhibits the differentiation process of alveolar differentiation. Inhibition of this differentiation process is achieved by applying a purified Wnt3a polypeptide to an in vitro lung explant culture of 13-day-old (E13) mouse embryos.
The (fetal) murine lung explant culture was generated according to our standard protocol. Briefly, complete lungs or individually dissected lung lobes were isolated from fetal mice and cultured for one to five days in a hanging drop culture system. The Wnt3a polypeptide was administered to the culture medium in different concentrations, ranging from 0 to 4000 ng/ml. The effect of this treatment was monitored by stereomicroscopy. The lung explant cultures were subsequently fixed for 30 minutes in 10% paraformaldehyde (PFA), 30 minutes in 2% PFA and 30 minutes in 4% PFA. After fixation, the lung explants were dehydrated through an increasing series of 2-isopropanol and subsequently embedded in paraffin. For the histological analysis, 4 μm thick sections were cut and stained with Hematoxilin and Eosin using standard techniques.
As a source for Wnt3a, recombinant mouse Wnt3a from R&D Systems (catalog nr. 1324-WN, R&D Systems, Inc. Minneapolis USA) was used. As culture medium, DMEM/HAM's F12 (1:1) from Biochrom AG, catalog nr. FG 4815, was used.

Wnt3a
differentiation of the epithelium (500 ng/ml, four days): delayed; also recorded: undifferentiated character of the epithelium | differentiation of the primordial lung epithelium (histology) (1000 ng/ml, five-day-old cultures): arrested at a stage comparable to that of the start of the culture (E13); also recorded: strong inhibitory effect on the development and differentiation of the fetal lung; also recorded: arrest of alveolar differentiation | effect on cell viability (2000 ng/ml): affects the viability of all cells | effect on lung development (stereomicroscopy) (2000 ng/ml and 4000 ng/ml, after one day): deleterious effect on lung development | complete block of differentiation of fetal lung development (4, 20, 100 and 500 ng/ml, four days): None of these concentrations was effective in completely blocking the differentiation | lung differentiation (stereomicroscopy) (E13 lung explants, 1000 ng/ml, after 16 hours): total block of lung differentiation | differentiation and alveolar development (stereomicroscopy) (E13 lung explants, 1000 ng/ml, five days culture): no significant differentiation and alveolar development could be observed | effects at the level of apoptosis and differentiation compared to control (between 4 and 20 ng/ml, four days): no clear effects were visible | concentration at which differentiation was strongly retarded with many picnotic cells (histological examination at day 4): above 100 ng/ml | concentration that does not show clear morphological changes (lung explants): below 1 ng/ml
